Kd data for 1 molecule are collected here from publication PMC4155686, “Oleoyl Coenzyme A Regulates Interaction of Transcriptional Regulator RaaS (Rv1219c) with DNA in Mycobacteria*” (The Journal of Biological Chemistry, 2014).

For the experiment, the target named is RaaS (Rv1219c) (Mycobacterium tuberculosis, UniProt O86312). Briefly: biochemical.
Sequence of RaaS (Rv1219c) (O86312 whole entry): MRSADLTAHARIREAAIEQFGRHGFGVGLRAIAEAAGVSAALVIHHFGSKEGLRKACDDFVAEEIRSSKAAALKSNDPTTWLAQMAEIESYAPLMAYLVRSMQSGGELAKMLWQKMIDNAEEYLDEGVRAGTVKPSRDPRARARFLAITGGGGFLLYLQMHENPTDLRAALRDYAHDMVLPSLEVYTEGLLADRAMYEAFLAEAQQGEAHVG

Consider `CCCCCCCC/C=C\CCCCCCCC(=O)SCCNC(=O)CCNC(=O)[C@H](O)C(C)(C)COP(=O)(O)OP(=O)(O)OC[C@H]1O[C@@H](n2cnc3c(N)ncnc32)[C@H](O)[C@@H]1OP(=O)(O)O` [oleoyl-CoA], for which the Kd (in general, the concentration at which binding is half-saturated) stood at 3.65 ± 0.28 µM.
